# Results from article PMC11941926, “Identification of Antimicrobial Peptides from Nibribacter radioresistens, a UV and Gamma Radiation Tolerant Bacterium” (Genes, 2025).
# No end group written: not given here.
# Columns and labels:
# [1] = tested on: E. coli (EC; ATCC 10536); assay: Antibacterial activity of synthetic NB_AMPs, microtiter plate method (MIC); assay type: cell-based, Escherichia coli
# Description: (§1) The cell-free supernatant of all E. coli DH5α strains containing cloned AMPs was collected after 24 h of culture and filtered through a 0.2 μm syringe (mixed cellulose esters (MCE), Merck, Darmstadt, Germany), and finally the cell-free supernatant was used for the evaluation of antibacterial activity. The cell-free supernatant from the E. coli DH5α, harboring only the plasmid vector without the NB_AMP genes, was confirmed as a negative control to have very little effect on antibacterial activities. The synthesized AMPs were suspended at a concentration of 10 mg/mL in distilled water and then used for antibacterial activity. The antibacterial activity against the Gram-negative bacterium, E. coli (EC; ATCC 10536), and the Gram-positive bacterium, Staphylococcus aureus (SA, ATCC 6538), was analyzed using the microtiter plate method and expressed as minimal inhibition concentration (MIC); the bacteria pre-cultured overnight (O/N) were cultured at 10^6 CFU/mL with the cell-free supernatant or the synthetic peptides, the reaction mixtures were added to the microtiter plate, and finally the reactivity was observed by O/N culture at 37 °C.
# [2] = tested on: Staphylococcus aureus (SA, ATCC 6538); assay: as above; assay type: cell-based
# Description: as §1
# [3] = synthetic peptides, microtiter plate, 10^6 CFU/mL, O/N culture at 37 °C, peptide stock 10 mg/mL in distilled water
sequence,measurement,setting,value
FFGRFKKEK [NB_AMP10],MIC50 against E. coli,"[1]; ATCC 10536, 24 h",2600 µg/mL
same,MIC50 against S. aureus,"[2]; ATCC 6538, 24 h",2110 µg/mL
GLQKYLSWVKNKRL [NB_AMP2],MIC50 against E. coli,[1]; [3],170 µg/mL
same,MIC50 against S. aureus,[2]; [3],230 µg/mL
GQYNQGGYGSQGGDYGQGGYGQGSMGGGYG [NB_AMP6],MIC50 against E. coli,[1]; [3],9430 µg/mL
same,MIC50 against S. aureus,[2]; [3],5830 µg/mL
KGAKKAGKAVKKTVKK [NB_AMP3],MIC50 against E. coli,[1]; [3],3430 µg/mL
same,MIC50 against S. aureus,[2]; [3],2880 µg/mL
KKLAAKEKAAAAKEKEAAKKAAAKEKK [NB_AMP9],MIC50 against S. aureus,[2]; [3],5050 µg/mL
NTLSSIASLLKK [NB_AMP5],MIC50 against E. coli,"[1]; ATCC 10536, 24 h",10210 µg/mL
same,MIC50 against S. aureus,"[2]; ATCC 6538, 24 h",3240 µg/mL
NYKLLSNSLNILL [NB_AMP8],MIC50 against S. aureus,[2]; [3],8360 µg/mL
WQEIKNSLEDLSDSI [NB_AMP4],MIC50 against E. coli,[1]; [3],4960 µg/mL
same,MIC50 against S. aureus,[2]; [3],2950 µg/mL
